Source: PubChem BioAssay (NCI)
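Each compound was tested at five concentrations against cells in 96-well plates for 48 hours. At the GI50, growth is halved. Definition used: TGI = concentration required for complete inhibition of growth.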

Columns and labels:
Assay in all cases: NCI-60 cell line screen, 48 h
SK-MEL-28 melanoma = system: SK-MEL-28 melanoma
OVCAR-5 ovarian = system: OVCAR-5 ovarian
NCI-H522 lung = system: NCI-H522 lung
UACC-257 melanoma = system: UACC-257 melanoma
CCRF-CEM leukemia = system: CCRF-CEM leukemia
SF-539 CNS = system: SF-539 CNS
SF-268 CNS = system: SF-268 CNS
OVCAR-4 ovarian = system: OVCAR-4 ovarian
UACC-62 melanoma = system: UACC-62 melanoma
MALME-3M melanoma = system: MALME-3M melanoma
U251 CNS = system: U251 CNS
OVCAR-3 ovarian = system: OVCAR-3 ovarian
A549 NSCLC = system: A549 NSCLC
HOP-92 NSCLC = system: HOP-92 NSCLC
RPMI-8226 leukemia = system: RPMI-8226 leukemia
NCI-H460 lung = system: NCI-H460 lung
MOLT-4 leukemia = system: MOLT-4 leukemia
NCI/ADR-RES ovarian = system: NCI/ADR-RES ovarian
MCF7 breast = system: MCF7 breast
MDA-MB-231 breast = system: MDA-MB-231 breast
SW-620 colon = system: SW-620 colon
KM12 colon = system: KM12 colon
BT-549 breast = system: BT-549 breast
SK-OV-3 ovarian = system: SK-OV-3 ovarian
HT29 colon = system: HT29 colon
HL-60(TB) leukemia = system: HL-60(TB) leukemia
SNB-19 CNS = system: SNB-19 CNS
IGROV1 ovarian = system: IGROV1 ovarian
CAKI-1 renal = system: CAKI-1 renal
NCI-H23 lung = system: NCI-H23 lung
RXF 393 renal = system: RXF 393 renal
DU-145 prostate = system: DU-145 prostate
T-47D breast = system: T-47D breast
LOX IMVI melanoma = system: LOX IMVI melanoma
HOP-62 NSCLC = system: HOP-62 NSCLC
MDA-MB-435 = system: MDA-MB-435
OVCAR-8 ovarian = system: OVCAR-8 ovarian
HS 578T breast = system: HS 578T breast
NCI-H226 lung = system: NCI-H226 lung
UO-31 renal = system: UO-31 renal
SF-295 CNS = system: SF-295 CNS
HCC-2998 colon = system: HCC-2998 colon
SK-MEL-5 melanoma = system: SK-MEL-5 melanoma
HCT-15 colon = system: HCT-15 colon
TK-10 renal = system: TK-10 renal
K-562 leukemia = system: K-562 leukemia
SNB-75 CNS = system: SNB-75 CNS
HCT-116 colon = system: HCT-116 colon
EKVX NSCLC = system: EKVX NSCLC
COLO 205 colon = system: COLO 205 colon
SK-MEL-2 melanoma = system: SK-MEL-2 melanoma
M14 melanoma = system: M14 melanoma
MDA-MB-468 breast = system: MDA-MB-468 breast
ACHN renal = system: ACHN renal
786-0 renal = system: 786-0 renal
A498 renal = system: A498 renal
SN12C renal = system: SN12C renal
PC-3 prostate = system: PC-3 prostate

## COc1ccc(-c2cc(C(=O)N=Nc3c(O)[nH]c4ccc(Cl)cc34)c3ccccc3n2)cc1
SK-MEL-28 melanoma
  GI50: 14.7 µM
  TGI: 30 µM
OVCAR-5 ovarian
  GI50: 12.2 µM
  TGI: 26.4 µM
NCI-H522 lung
  GI50: 16.5 µM
  TGI: 39.4 µM
UACC-257 melanoma
  GI50: 16.6 µM
  TGI: 32.6 µM
CCRF-CEM leukemia
  GI50: 3.32 µM
  TGI: > 100 µM
SF-539 CNS
  GI50: 15.5 µM
  TGI: 29.8 µM
SF-268 CNS
  GI50: 16.2 µM
  TGI: 37.6 µM
OVCAR-4 ovarian
  GI50: 13 µM
  TGI: 43.3 µM
UACC-62 melanoma
  GI50: 14.8 µM
  TGI: 30.4 µM
MALME-3M melanoma
  GI50: 14.4 µM
  TGI: 28.5 µM
U251 CNS
  GI50: 3.57 µM
  TGI: 16.2 µM
OVCAR-3 ovarian
  GI50: 11.8 µM
  TGI: 26.4 µM
A549 NSCLC
  GI50: 5.56 µM
  TGI: 31.9 µM
HOP-92 NSCLC
  GI50: 11.6 µM
  TGI: 32.9 µM
RPMI-8226 leukemia
  GI50: 14.7 µM
  TGI: > 100 µM
NCI-H460 lung
  GI50: 11.5 µM
  TGI: 39.7 µM
MOLT-4 leukemia
  GI50: 3.88 µM
  TGI: > 100 µM
NCI/ADR-RES ovarian
  GI50: 12 µM
  TGI: 47.3 µM
MCF7 breast
  GI50: 5.32 µM
  TGI: 28.2 µM
MDA-MB-231 breast
  GI50: 5.13 µM
  TGI: 18.1 µM
SW-620 colon
  GI50: 3.09 µM
  TGI: 19.4 µM
KM12 colon
  GI50: 21.6 µM
  TGI: 57.3 µM
BT-549 breast
  GI50: 22 µM
  TGI: 43 µM
SK-OV-3 ovarian
  GI50: 15.8 µM
  TGI: 33.1 µM
HT29 colon
  GI50: 4.63 µM
  TGI: 31.2 µM
HL-60(TB) leukemia
  GI50: 9.57 µM
  TGI: > 100 µM
SNB-19 CNS
  GI50: 17.4 µM
  TGI: 32 µM
IGROV1 ovarian
  GI50: 13.1 µM
  TGI: 30.1 µM
CAKI-1 renal
  GI50: 11.7 µM
  TGI: 26.4 µM
NCI-H23 lung
  GI50: 6.43 µM
  TGI: 30.8 µM
RXF 393 renal
  GI50: 12.1 µM
  TGI: 25.7 µM
DU-145 prostate
  GI50: 15.3 µM
  TGI: 29.7 µM
T-47D breast
  GI50: 11.8 µM
  TGI: 42.3 µM
LOX IMVI melanoma
  GI50: 3.23 µM
  TGI: 13.3 µM
HOP-62 NSCLC
  GI50: 3.96 µM
  TGI: 25.7 µM
MDA-MB-435
  GI50: 14.8 µM
  TGI: 30.7 µM
OVCAR-8 ovarian
  GI50: 10.2 µM
  TGI: 35.9 µM
HS 578T breast
  GI50: 16.6 µM
  TGI: 69.2 µM
NCI-H226 lung
  GI50: 14.3 µM
  TGI: 55.1 µM
UO-31 renal
  GI50: 11.5 µM
  TGI: 24.1 µM
SF-295 CNS
  GI50: 13.7 µM
  TGI: 29.4 µM
HCC-2998 colon
  GI50: 15 µM
  TGI: 31.4 µM
SK-MEL-5 melanoma
  GI50: 15.5 µM
  TGI: 30.8 µM
HCT-15 colon
  GI50: 2.81 µM
  TGI: 10.2 µM
TK-10 renal
  GI50: 23.9 µM
  TGI: 42.3 µM
K-562 leukemia
  GI50: 3.14 µM
  TGI: > 100 µM
SNB-75 CNS
  GI50: 12.9 µM
  TGI: 27.6 µM
HCT-116 colon
  GI50: 5.3 µM
  TGI: 63.7 µM
EKVX NSCLC
  GI50: 11.4 µM
  TGI: 27.1 µM
COLO 205 colon
  GI50: 15 µM
  TGI: 35.3 µM
SK-MEL-2 melanoma
  GI50: 19.3 µM
  TGI: 35.8 µM
M14 melanoma
  GI50: 11 µM
  TGI: 41.9 µM
MDA-MB-468 breast
  GI50: 6.78 µM
  TGI: 25.9 µM
ACHN renal
  GI50: 10.1 µM
  TGI: 23.2 µM
786-0 renal
  GI50: 19.8 µM
  TGI: 43.7 µM
A498 renal
  GI50: 21 µM
  TGI: 36.1 µM
SN12C renal
  GI50: 13.9 µM
  TGI: 32 µM
PC-3 prostate
  GI50: 12 µM
  TGI: > 100 µM
